From ChEMBL document CHEMBL3507680, “University of Dundee, Gates Library screen for HepG2 cell viability” come the findings set out here.

This series is described as follows: Human HepG2 cell viability assay in 384 well format. Also noted: dose 125 nL, time 70.5 hour; cytotoxicity at 70.5 h: concentration not given beside the values. The format is toxicity, cell-based. The settings on record: HepG2 cells, read-out: Inhibition.
On to `Cc1nccc(CNC(=O)NCC(C)Oc2ccccc2F)n1` (stereo not drawn), for which the cytotoxicity at 70.5 h stood at 10.9%. With `COc1ccc(CNCc2c(C(C)C)nn(C)c2N(C)C)cn1` the figure was 0.065%. With `CCOC(=O)[C@]12CCCN(Cc3cccs3)C[C@H]1CN(CCOC)C2` the figure was 1.08%. With `CNC(=O)[C@H]1C[C@@H]2CN(C(=O)c3cncc(C)c3)C[C@@H]2N1C` the figure was -16.6%. For `CCC(NC(=O)CCCN1CCCCC1)c1cn2cccnc2n1` (stereo not drawn), the cytotoxicity at 70.5 h was -0.954%. Take `Cc1nn(C)c(Oc2cccc(F)c2)c1NC(=O)C1CCOCC1`: the cytotoxicity at 70.5 h is -14.1%.

On to `O=C(c1ccn(-c2cccc(F)c2)n1)N1CCN(CC2CC2)CC1`, for which the cytotoxicity at 70.5 h was -7.87%.

Take `O=C(c1ccc2c(c1)[nH]c(=O)n2[C@H]1CC[C@H](O)CC1)N1CCOCC1`: the cytotoxicity at 70.5 h is -12.1%. Take `Cc1noc([C@@]23CCO[C@@H]2CCN(Cc2scnc2C)C3)n1`: the cytotoxicity at 70.5 h is -13.1%. For `Cc1nc(C)n(CC2CCCN(Cc3nc(C4CC4)no3)C2)n1` (stereo not drawn) the value was -1.73%; for `CCN1CCNC(=O)C12CCN(C(=O)Cc1ccsc1)CC2`, 2.23%.

Regarding `CC(=O)N1CCCN(C(=O)Cc2c(C)nc(C)[nH]c2=O)CC1`, the cytotoxicity at 70.5 h was -0.651%.

Take `COC(=O)C1(NCc2nc(C)c(C)o2)CCC(C)CC1` (stereo not drawn): the cytotoxicity at 70.5 h was -8.62%. With `COCCn1cnnc1Cn1ccnc1-c1ccsc1` the figure was 1.35%. Take `COc1ccc(S(=O)(=O)N2CCN(C)c3ncccc3C2)cc1`: the cytotoxicity at 70.5 h was -5.97%.

Turning to `CC(=O)NCC(=O)N1CCCC(C(=O)c2ccc(C(C)(C)C)cc2)C1` (stereo not drawn), the cytotoxicity at 70.5 h was -0.592%. For `CCC(CCN)n1ccc(C(F)(F)F)n1` (stereo not drawn) the value was 4.74%; for `COCCCNC(=O)c1cc(-c2cnc(N3CCOCC3)nc2)cn1C`, -6.15%. With `Cc1cc(CN2CCOC(CNc3cccnn3)C2)no1` (stereo not drawn) the figure was 2.59%; with `CC(C)COC(C)C(=O)NCc1ccc(N(C)C)cc1` (stereo not drawn), 7.68%; with `NC(=O)C1CCN(C(=O)Cn2nc(-c3ccccc3)oc2=O)C1` (stereo not drawn), -5.69%. With `Cc1cc(NC(=O)CNC(C)(C)c2ccc3c(c2)OCCO3)no1` the figure was 2.35%; with `Clc1ccccc1CN1CCc2nc(C3CCCNC3)ncc2C1` (stereo not drawn), -7.56%. On to `CCC(=O)Nc1ccc2c(ccn2CC(=O)N(CC)CC)c1`, for which the cytotoxicity at 70.5 h was -3.74%. With `Cc1n[nH]c(C2CN(C(=O)c3ccc(Cl)o3)CCO2)n1` (stereo not drawn) the figure was -11.1%; with `CSc1ccc(OCCN2CCNC(=O)CC2)cc1`, -7.88%. For `Cc1nc(NC(=O)N2CCCC(C(F)(F)F)C2)nn1C` (stereo not drawn) the value was -8%; for `CC[C@H]1CN(S(C)(=O)=O)CC[C@H]1CC(=O)NCCSC`, -2.51%; for `Cn1nc(COCC2CC2)c2c1CN(CC1CC1)CC2`, -0.347%.

With `c1ccc2sc(CN3CCOC(Cn4cncn4)C3)nc2c1` (stereo not drawn), the cytotoxicity at 70.5 h was -4.62%. With `Cc1cnn(C2CN(Cc3nc(-c4cccnc4)no3)C2)c1` the figure was 1.92%; with `C/C(=C\c1ccco1)CN(C)C(C)Cc1cc(C)ccn1` (stereo not drawn), -0.46%. `CC(CN1CCN(C)CC1)NC(=O)c1cc(Cl)c2c(c1)OCO2` (stereo not drawn): the cytotoxicity at 70.5 h is -0.705%. For `Cc1noc(CN2C[C@H]3CC[C@@H]2CN(C2Cc4ccccc4C2)C3)n1` the value was 4.75%; for `COCCN1CCC2(CCCN(C(=O)c3ccoc3C)C2)C1=O` (stereo not drawn), -1.73%; for `CN(CC(N)=O)Cc1c(Cl)ccc2cccnc12`, -2.22%. With `CC(c1nc(C2CC2)no1)N(C)Cc1ccc(Cl)cc1` (stereo not drawn) the figure was -3.08%; with `CCOC(=O)[C@]12CCCN(Cc3nccs3)C[C@H]1CN(CCN(C)C)C2`, -10.1%.

Turning to `CCC(NC(=O)c1ccco1)c1nc(C(F)(F)F)cs1` (stereo not drawn), the cytotoxicity at 70.5 h was -6.77%. With `CC(CCc1ccccc1)CC(=O)NC1CCN(CC(N)=O)CC1` (stereo not drawn) the figure was 0.475%. With `CCS(=O)(=O)N1C[C@@H](OCc2ccccn2)[C@@H]2OCCC[C@@H]21` the figure was -9.16%; with `O=C(C1CCOCC1)N1CCO[C@H]2[C@H](Oc3ccccn3)CC[C@@H]21`, 13.9%; with `Cn1cc(C2CC(=O)NC23CCN(C(=O)C2CC=CC2)CC3)cn1` (stereo not drawn), 18.7%.

With `COc1c(C2CCCN2Cc2nnc(C3CC3)n2C)c(C)nn1C` (stereo not drawn), the cytotoxicity at 70.5 h was -5.73%. With `CCOCC(=O)N1C[C@@H](O)[C@H](N(C)Cc2ccc(OC)cc2)C1` the figure was -13.7%; with `O=C(O)C1(n2cccn2)CCN(Cc2nc(-c3ccccc3)no2)CC1`, -9.66%; with `CC1=N[C@@]2(CC[C@@H]3CN(Cc4ccccc4F)C[C@@H]32)C(=O)N1C`, -20%. With `Cc1nnc(CN(Cc2ccc3c(c2)OCO3)C2CCC(C)CC2)o1` (stereo not drawn) the figure was -1.97%. For `COCCc1noc(CN(C)C(=O)C(C)N2CCc3ccccc3C2)n1` (stereo not drawn) the value was -9.3%.

Consider `Cc1ccc(CN(C)C(=O)NCC(C)(C)CCS(C)(=O)=O)s1`, for which the cytotoxicity at 70.5 h was -1.02%. For `CN(Cc1cnn(C)c1)C(=O)NC1CCC(O)CC1` (stereo not drawn) the value was -7.28%; for `COc1ccc(F)cc1C(C)NC(=O)Nc1nnc(C)s1` (stereo not drawn), -12.6%.

With `CCOc1ccc(Cl)c(C(=O)N2CCN(c3cnccn3)CC2)n1`, the cytotoxicity at 70.5 h was 38.9%. With `FC(F)(F)CN1CCC(CCNc2ncccn2)CC1` the figure was 0.447%; with `CC1c2ncc(CNC(=O)C3CC3)n2CCN1Cc1nccs1` (stereo not drawn), -7.88%. For `CCn1ncc2c1C(COC)CN(Cc1ccc(F)cc1)C2` (stereo not drawn) the value was 2.06%. For `COc1ccc(C(C)N2CCC(C(=O)N(C)C)CC2)cc1Cl` (stereo not drawn) the value was -7.99%; for `CCc1ccc(C(=O)N2CCC(c3nncn3CC)CC2)cc1`, 33.4%.

For `CCC(=O)N1CCC(NC2CCSCC2)C1` (stereo not drawn), the cytotoxicity at 70.5 h is -8.75%.

Consider `COc1ccc2c(c1)OCC(CNC(=O)c1cc(C(C)C)on1)C2` (stereo not drawn), for which the cytotoxicity at 70.5 h was -20.5%. With `CS(=O)(=O)N1CCOC(CNC(=O)c2cccc(C#N)c2)C1` (stereo not drawn) the figure was 3.98%; with `CC(C)NC(=O)[C@@H]1CCO[C@@H]2CCN(c3ncccn3)C[C@@H]21`, 0.956%.

Turning to `Cc1nnc(C(C)Nc2cccc(COCCOC(C)C)c2)o1` (stereo not drawn), the cytotoxicity at 70.5 h is -1.57%. For `CC(C(=O)NC1CC1)S(=O)(=O)Cc1csc(-c2cccs2)n1` (stereo not drawn) the value was 11%; for `Cc1ccc(N2CCN(C)c3ncccc3C2)nn1`, -2.98%. For `CCCOc1ccc(Cl)cc1NC(=O)NCCC(=O)N(C)C` the value was 4.12%.

With `CCc1noc(CNCCn2cc(C)cn2)n1`, the cytotoxicity at 70.5 h is -3.69%.

As for `OC(COCc1cccs1)CSc1nnc2ccccn12` (stereo not drawn), the cytotoxicity at 70.5 h is 22.9%. For `Cc1cc(N2CCC(CO)(CC3CCCCO3)CC2)c2ccccc2n1` (stereo not drawn) the value was 2.86%. `CC(NC(=O)CCOc1ccc(F)cc1)c1nnc2n1CCCCC2` (stereo not drawn): the cytotoxicity at 70.5 h came out at 5.98%.

In the case of `CS(=O)(=O)N1C[C@@H]2CC[C@H](C1)N(C(=O)Cn1ccc3ccccc31)C2`, the cytotoxicity at 70.5 h was -4.09%. With `CN(C)C1COC2(CCN(Cc3ccc4c(c3)OCO4)CC2)C1` (stereo not drawn) the figure was 2.59%. Regarding `COCCN1C[C@H]2CC[C@@]3(N=C(C)N(CC4CC4)C3=O)[C@H]2C1`, the cytotoxicity at 70.5 h was -2.1%.

As for `Cc1ccc(Cl)cc1NC(=O)C1CC(=O)N(Cc2ccccn2)C1` (stereo not drawn), the cytotoxicity at 70.5 h amounted to 8.15%. As for `O=C1NCCN(CC2CC2)C12CCN(Cc1ccccc1)CC2`, the cytotoxicity at 70.5 h is 13.9%.

For the molecule `CCCn1c(C)c(CC(=O)NCCOC)c2c1CC(C)(C)CC2=O`, the cytotoxicity at 70.5 h is -0.0334%. For `CCS(=O)(=O)N1CCCC2(CCCN2Cc2cccc(F)c2)C1` (stereo not drawn) the value was -8.06%. For `c1cc(CN2CC[C@@H]3CN(c4cnccn4)C[C@@H]3C2)ccn1` the value was -3.4%; for `C[C@@H](O)CNC(=O)c1nc(Cc2c(Cl)cccc2Cl)no1`, -8.72%; for `O=C(NCc1cccnc1)c1ccc2nccn2c1`, 1.82%. Consider `COc1ccc(CC(=O)N2CCC(Nc3ccc(C)nn3)CC2)cc1`, for which the cytotoxicity at 70.5 h was -3.12%.

For `Cc1ccccc1-c1cc(NC(=O)NC2CCC(O)CC2)n(CCO)n1` (stereo not drawn), the cytotoxicity at 70.5 h was -3.45%. For `CCC(NCc1ccccc1Cl)c1ccccc1OCC(=O)NC` (stereo not drawn) the value was -3.07%. For `CCc1ccccc1OCCN(C)C(=O)CCN1CCCCO1` the value was -7.24%; for `Cc1ncc(C(=O)NC2CCN(CCOc3ccc(Br)cc3)CC2)s1`, -4.58%. For `Cc1cc(F)ccc1S(=O)(=O)N1C[C@@H](C)[C@@](C)(O)C1` the value was -3.25%; for `Clc1ccc(C2(NCc3noc(C4CC4)n3)CCOCC2)cc1`, -8.54%. Take `O=C(N1CCCC(n2cncn2)C1)C1(c2cccc(F)c2)CC1` (stereo not drawn): the cytotoxicity at 70.5 h was -7.31%. Consider `COc1ccccc1S(=O)(=O)Nc1cnc(O)cc1C`, for which the cytotoxicity at 70.5 h was -10.5%. For `COc1cc(CNCCc2cnn(C)c2)cc(OC)c1OC` the value was 21.4%; for `CCOc1ccccc1CC(=O)N1C[C@H](C2CC2)[C@@H](N)C1`, -0.519%; for `CCCC(O)CN1CCC(=O)N(CC2CC2)Cc2cc3c(cc21)OCO3` (stereo not drawn), 25%. For `Cc1cnn(CCNCc2ccc(OCC(N)=O)cc2)c1` the value was -6.65%; for `CCOc1ncccc1CNC(=O)Nc1ccc(CC)cc1`, -7.83%. For `CCC(O)CN1CCN(C(=O)CN(C)c2ccc(Cl)cn2)CC1` (stereo not drawn) the value was -5.06%; for `CN(C)CC1CN(Cc2cccc(C#N)c2)Cc2nccn2C1` (stereo not drawn), -6.48%; for `COCCN1C(=O)CC[C@@H]2[C@@H]1CCN2Cc1c(C)noc1C`, -5.73%. For the molecule `O=C1[C@H]2CN(S(=O)(=O)c3ccccc3)C[C@H]2CN1Cc1cccnc1`, the cytotoxicity at 70.5 h was -15.6%.
